Source: publication PMC4183669 (Chemistry and physics of lipids, 2014)
Where two headings read alike, the source gives them in different places. Peptide text beside a SMILES is read from it. * marks the point of attachment. X1 = CCCCCCCCCCCCCCCC(=O)OC[C@H](COP(=O)([O-])OCC[N+](C)(C)C)O*

Columns and labels:
[1] = biological target: bee-venom phospholipase A2 (Apis mellifera, UniProt P00630); assay type: biochemical
membrane fusion = settings: ref Epand, 2003; cited from earlier work

Sequence of bee-venom phospholipase A2 (P00630 34-167 limits assumed): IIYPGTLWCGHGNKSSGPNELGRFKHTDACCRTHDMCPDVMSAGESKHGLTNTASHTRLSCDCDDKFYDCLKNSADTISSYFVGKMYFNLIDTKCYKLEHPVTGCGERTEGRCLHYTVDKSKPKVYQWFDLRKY

Compound	time to complete hydrolysis by PLA2 [1] [min]	time to complete hydrolysis by PLA2 ([1]; 40°C) [min]	time to complete hydrolysis by PLA2 ([1]; pH 8.5) [min]	hydrolysis by bee-venom PLA2 (result in words) [1]	antiviral action by inhibition of membrane fusion (membrane fusion)
CCCCCCCCCCCCCCCC(=O)OC[C@H](COP(=O)([O-])OCC[N+](C)(C)C)OC(=O)CCCCCCCCCCCCCCC [DPPC, dipalmitoyl phosphatidylcholine, reference compound]	10	≤ 90	10		
CCCCCCCCCCCCCCCC(=O)OC[C@H](COP(=O)([O-])OCC[N+](C)(C)C)OC(=O)CNC(=O)CNC(=O)[C@@H]1CCCN1C(=O)CN.Cl [compound 10, 1-Palmitoyl-2-(gly-pro-gly-gly)-sn-glycero-3-phosphocholine hydrochloride] (H-GPGG-X1)			≤ 90	completely hydrolyzed	
CCCCCCCCCCCCCCCC(=O)OC[C@H](COP(=O)([O-])OCC[N+](C)(C)C)OC(=O)CNC(=O)[C@H](Cc1ccccc1)NC(=O)[C@@H](Cc1ccccc1)NC(=O)OCc1ccccc1 [compound 13, 1-Palmitoyl-2-(CBZ-D-phe-phe-gly)-sn-glycero-3-phosphocholine]			≤ 90	completely hydrolyzed	
CCCCCCCCCCCCCCCC(=O)OC[C@H](COP(=O)([O-])OCC[N+](C)(C)C)OC(=O)CNC(=O)OC(C)(C)C [compound 14, 1-palmitoyl-2-(N-BOC-glycyl)-sn-glycero-3-phosphocholine]	20			readily hydrolyzed	
carbobenzoxy-D-Phe-Phe-Gly [compound 5]					blocking viral infection by inhibiting membrane fusion
